Measurements published in paper PMC6112376, “Comprehensive Analyses and Prioritization of Tox21 10K Chemicals Affecting Mitochondrial Function by in-Depth Mechanistic Studies” (Environmental Health Perspectives, 2018).
Read-outs that look alike come from different tables or passages of the source.

Tests used:
HepG2 cells [1] = settings: cited from earlier work
rat primary hepatocytes = test: MMP assay in rat primary hepatocytes; settings: rat hepatocytes, mean ± SD of three experiments; for IC50: read-out: MMP assays IC50 (µM) Rat Hepatocytes
HepG2 cells [2] = settings: HepG2 cells, single number from one experiment; for IC50: read-out: MMP assays IC50 (µM) HepG2
[3] = read-out: MMP assays IC50 (µM), qHTS-HepG2
[4] = read-out: MMP assays IC50 (µM) qHTS-HepG2

SMILES | MMP assays efficacy (%) qHTS-HepG2 (HepG2 cells [1]) | IC50 (HepG2 cells [1]; [3]) [µM] | MMP assays IC50 (µM) Rat Hepatocytes (rat primary hepatocytes) | MMP assays efficacy (%) Rat Hepatocytes (rat primary hepatocytes) | MMP assays IC50 (µM) HepG2 (HepG2 cells [2]) | MMP assays efficacy (%) HepG2 (HepG2 cells [2]) | IC50 (HepG2 cells [1]; [4]) [µM] | IC50 (HepG2 cells [2]) [µM] | IC50 (rat primary hepatocytes) [µM] | MMP assays IC50 (µM) qHTS-HepG2 (HepG2 cells [1])
O=C([O-])c1cc(=O)c2c3nc4ccccc4oc-3cc(=O)c2[nH]1.[Na+] [Pirenoxine sodium] | -54±10% | 21.1 ± 17.8 | inactive | inactive | inactive | inactive |  |  |  | 
O=C(OCC(COC(=O)c1ccccc1)(COC(=O)c1ccccc1)COC(=O)c1ccccc1)c1ccccc1 | -63±21% |  | inactive | inactive |  | -52% | 4.32 ± 8.63 | 7.08 |  | 
CC(C)(C)NCC(O)CSc1nc(-c2ccc(C(N)=O)s2)cs1.Cl (stereo not shown) [Arotinolol hydrochloride] | -64±8% |  | inactive | inactive |  | -88% | 17 ± 3.45 | 27.5 |  | 
CCCCCCCCCCn1cc[n+](C)c1.O=S(=O)([O-])C(F)(F)F [1-Decyl-3-methylimidazolium trifluoromethanesulfonate] | -57±16% |  |  | -125±47% |  | -99% | 1.67 ± 2.71 | 7.08 | 12.1 ± 3.97 | 
CCCCCCCCCCCC[N+](C)(C)Cc1ccccc1.[Br-] [Benzyldodecyldimethylammonium bromide] | -97±11% |  |  | -44±3% |  |  | 11.4 ± 4.34 | 17.3 | 18.4 ± 1.5 | 
Cc1cc(N)c2cc(NC(=O)Nc3ccc4nc(C)cc(N)c4c3)ccc2n1.Cl.Cl [Aminoquinuride dihydrochloride] | -99±7% |  |  | inactive |  | -90% | 25 ± 4.09 | 27.5 |  | 
CC(=O)OCC(=O)[C@@]1(OC(C)=O)[C@@H](C)C[C@H]2[C@@H]3C[C@H](F)C4=CC(=O)C=C[C@]4(C)[C@@]3(F)[C@@H](O)C[C@@]21C [Diflorasone diacetate] | -50±7% |  | inactive | inactive | inactive | inactive | 28.7 ± 1.87 |  |  | 
C[C@@H]1C[C@H]2[C@@H]3CCC4=CC(=O)C=C[C@]4(C)[C@@]3(F)[C@@H](O)C[C@]2(C)[C@@]1(O)C(=O)COC(=O)c1cccc(S(=O)(=O)[O-])c1.[Na+] [Dexamethazone metasulfobenzoate sodium] | inactive |  | inactive | inactive | inactive | inactive |  |  |  | inactive
CO[C@H]1C[C@H](O[C@H]2[C@H](C)O[C@@H](O[C@@H]3/C(C)=C/C[C@@H]4C[C@@H](C[C@]5(C=C[C@H](C)[C@@H](C6CCCCC6)O5)O4)OC(=O)[C@@H]4C=C(C)[C@@H](O)[C@H]5OC/C(=C\C=C\[C@@H]3C)[C@]54O)C[C@@H]2OC)O[C@@H](C)[C@@H]1O [Doramectin] | -80±13% |  | inactive | inactive |  | -117% | 11.9 | 17.3 |  | 
CC(=O)c1ccc2ccc3ccccc3c2c1 [Compound 3-Acetylphenanthrene] | -105±10% |  |  | -44±5% |  | -105% | 36.9 ± 13.7 | 56.2 | 42.2 ± 19.8 | 
Cc1cc2nc3ccc(N(C)C)cc3[s+]c2cc1N.[Cl-] [Toluidine blue] | -50±26% | 3.48 ± 1.6 | inactive | inactive |  | -44% |  | 4.89 |  | 
